Among the data in US8716297B2, “Chemical entities to be used for Wee1 inhibition for the treatment of cancer” (AbbVie Inc., priority 2011, dated 2014) are Ki values, retold here.

Molecules are shown by their SMILES.

This test deals with T1, GST-tagged-Wee1 kinase (Homo sapiens, UniProt P30291).
T1 construct: purchased Carnabio 05-177
T1 sequence (P30291 whole entry): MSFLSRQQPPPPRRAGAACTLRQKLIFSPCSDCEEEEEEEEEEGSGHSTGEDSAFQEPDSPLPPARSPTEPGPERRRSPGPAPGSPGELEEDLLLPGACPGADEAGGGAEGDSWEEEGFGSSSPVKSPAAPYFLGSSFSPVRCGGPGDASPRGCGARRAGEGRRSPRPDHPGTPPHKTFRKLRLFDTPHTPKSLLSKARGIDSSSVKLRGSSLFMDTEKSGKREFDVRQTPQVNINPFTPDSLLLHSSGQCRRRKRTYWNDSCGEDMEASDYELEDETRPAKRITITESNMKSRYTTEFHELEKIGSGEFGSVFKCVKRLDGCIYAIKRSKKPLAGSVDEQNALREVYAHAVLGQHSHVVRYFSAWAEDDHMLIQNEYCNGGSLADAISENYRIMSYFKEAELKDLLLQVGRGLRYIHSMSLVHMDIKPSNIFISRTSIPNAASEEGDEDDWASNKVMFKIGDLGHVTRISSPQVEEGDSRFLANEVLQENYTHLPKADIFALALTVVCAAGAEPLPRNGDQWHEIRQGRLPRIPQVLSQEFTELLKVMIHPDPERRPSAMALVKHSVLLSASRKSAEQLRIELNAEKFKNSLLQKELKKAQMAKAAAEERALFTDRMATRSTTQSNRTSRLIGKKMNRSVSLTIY
Description: Wee1 time-resolved fluorescence equilibrium binding assay (displacement of Oregon Green-labeled ATP-competitive probe). Particulars: TR-FRET probe displacement; 2 nM GST-Wee1, 300 nM probe, 1 hour incubation; read-out: Wee-1 binding (Ki nM). The protocol:
Wee1 kinase was assayed using a time-resolved fluorescence equilibrium binding assay monitoring displacement of a rapidly reversible Oregon Green-labeled ATP-competitive kinase probe (N-(2-(2-(2-(4-(4-(5-chloro-4-(2-(1-hydroxycyclobutyl)thiazol-5-yl)-1H-pyrrolo[2,3-b]pyridin-2-yl)phenyl)piperazin-1-yl)ethoxy)ethoxy)ethyl)-2′,7′-difluoro-3′,6′-dihydroxy-3-oxo-3H-spiro[isobenzofuran-1,9′-xanthene]-5-carboxamide) by competitive Wee1 inhibitors.
As usually defined, the Ki is the dissociation constant of the complex between target and ligand, obtained from inhibition or displacement. In the case of `CCCN1c2ccc(-c3cccc(C(=O)NC)c3)cc2-c2nc(Nc3ccc(N4CCN(C)CC4)cc3)ncc2S1(=O)=O` [Example 100, N-methyl-3-(2-{[4-(4-methylpiperazin-1-yl)phenyl]amino}-5,5-dioxido-6-propyl-6H-pyrimido[5,4-c][2,1]benzothiazin-9-yl)benzamide], the Ki was 4 nM.
Regarding `C=CCN1c2ccccc2-c2nc(Nc3ccc(C4CCCCC4)cc3)ncc2S1(=O)=O` [Example 13, 6-allyl-N-(4-cyclohexylphenyl)-6H-pyrimido[5,4-c][2,1]benzothiazin-2-amine 5,5-dioxide], the Ki stood at 2080 nM.
As for `COC(=O)c1ccc2c(c1)N(c1cc(C(F)(F)F)cc(C(F)(F)F)c1)S(=O)(=O)c1cnc(Nc3ccc(N4CCN(C)CC4)cc3)nc1-2` [Example 91, methyl 6-[3,5-bis(trifluoromethyl)phenyl]-2-{[4-(4-methylpiperazin-1-yl)phenyl]amino}-6H-pyrimido[5,4-c][2,1]benzothiazine-8-carboxylate 5,5-dioxide], the Ki amounted to 2700 nM.
Regarding `C=CCN1c2ccccc2-c2nc(Nc3ccc(N4CCN(C)CC4)cc3OC)ncc2S1(=O)=O` [Example 15, 6-allyl-N-[2-methoxy-4-(4-methylpiperazin-1-yl)phenyl]-6H-pyrimido[5,4-c][2,1]benzothiazin-2-amine 5,5-dioxide], the Ki was found to be 166 nM.
As for `CCCN1c2cc(-n3cccc3)ccc2-c2nc(Nc3ccc(N4CCN(C)CC4)cc3)ncc2S1(=O)=O` [Example 93, N-[4-(4-methylpiperazin-1-yl)phenyl]-6-propyl-8-(1H-pyrrol-1-yl)-6H-pyrimido[5,4-c][2,1]benzothiazin-2-amine 5,5-dioxide], the Ki stood at 45 nM.
For the compound `C=CCN1c2ncccc2-c2nc(Nc3ccc4c(c3)CNCC4)ncc2S1(=O)=O` [Example 33, 6-allyl-N-(1,2,3,4-tetrahydroisoquinolin-7-yl)-6H-pyrido[2,3-c]pyrimido[4,5-e][1,2]thiazin-2-amine 5,5-dioxide], the Ki is 3 nM.
